Experimental findings from patent US20150025074A1, “METHODS AND COMPOSITIONS FOR TREATING SOLID TUMORS AND OTHER MALIGNANCIES” (priority 2009, published 2015) are described below.

Where two headings read alike, the source gives them in different places.

Experiment [1] relates to medulloblastoma cells derived from resistant Ptch+/−Hic+/− medulloblastoma tumors. The experiment in a line: ex-vivo medulloblastoma proliferation assay (48 h, 3H thymidine incorporation), resistant tumors. Format: cell-based, mouse. Conditions: for IC50: Mus musculus, Medulloblastoma cell. The procedure:
(§1) The effect of mTor inhibitors (e.g., compounds such as Compound A) on the proliferation of medulloblastoma cells derived from sensitive and resistant medulloblastoma tumors was evaluated by using an “ex-vivo medulloblastoma proliferation assay. Sensitive tumors means tumors (e.g., medulloblastomas) which, due to hedgehog pathway activation, respond to treatment with a smoothened inhibitor anti-cancer regimen. Resistant tumors means formerly sensitive tumors (e.g., medulloblastomas) which, in the continuos presence of a smo inhibitor, either have regrown after shrinking due to treatment, or have reappeared after being temporarily eliminated due to treatment. Resistant tumors show a decreased sensitivity or no response to smoothened inhibition.
(§2) Using Ptch+/−Hic+/− medulloblastoma tumors freshly harvested from allografted nude mice, we have developed a short-term 48 h proliferation assay that enables us to assess the in vitro potency of Smo inhibitors. The read-out for proliferation uses incorporation of 3H thymidine. The assay reflects the in vivo sensitivity of tumor cells to Compound 1.
(§3) Table 1 summarizes the results of treating medulloblastoma cells in culture with Compound 1 (Smo inhibitor) and Compound A (mTor inhibitor), or combinations thereof. […] The potency of compound A in resistant tumors was increased in the presence of 5 and 20 uM of compound 1.
(In general: Incorporation of labelled thymidine or its analogues reports DNA synthesis.)

Experiment [2] has as its system medulloblastoma cells derived from sensitive Ptch+/−Hic+/− medulloblastoma tumors. The experiment in a line: ex-vivo medulloblastoma proliferation assay (48 h, 3H thymidine incorporation), sensitive tumors. Format: cell-based. Conditions: Mus musculus, Medulloblastoma cell. The procedure:
as §1, §2, §3

For experiment [3], the system named is Ptch+/−Hic+/− medulloblastoma allograft. In words: Ptch+/−Hic+/− subcutaneous medulloblastoma allograft model. Format: in vivo, Harlan nu/nu mice. Conditions: po; for effect on tumor growth / tumor volume: 80 mg/kg qd Compound 1, 10 mg/kg qd Compound A, or combination, FIG. 1. On the procedure:
Mouse medulloblastoma cells (1.0-5.0×10^6), dissociated directly from tumor fragments originally derived from spontaneously arising medulloblastomas in Ptch+/−Hic+/− mice, were inoculated subcutaneously into the right flank of Harlan nu/nu mice. Treatment was initiated approximately 7-10 days post implantation. […] Tumor volumes (mm3) and body weights (g) were recorded two or three times per week from all groups for analysis. Dose was body weight adjusted at time of dosing. Comparisons between treatment groups was performed using a non-parametric Kruskal-Wallis/Wilcoxon Rank Sum Test.
Tumors were calipered in two dimensions, and the volumes were calculated using the formula: (length×width2)/2, where length is the longer of the two measurements and width is the shorter one. Percent treatment/control (% T/C) values were calculated using the following formula: % T/C=100×ΔTf-i/ΔCf-i if ΔTf-i>0, % T/T0-100×ΔTf-i/T0 if ΔTf-i<0 (regression). A partial responder (PR) was defined as an animal whose tumor […] was less than 50% of the initial tumor volume by the end of the study. An animal with no palpable tumor by the end of study is defined as a complete responder (CR).
Ptch+/− mice develop medulloblastoma spontaneously (Romer, et al., Cancer Cell, Volume 6, Issue 3, pages 229-24, 2004). […] The heterozygous loss of Hic results in an earlier onset and increases the incidence rate of medulloblastomas (Briggs et al., Genes & Dev., 22: pages 770-785 2008). The in vivo efficacy of Compound 1 was evaluated in Ptch+/−Hic+/− mouse medulloblastoma allograft models, derived from corresponding transgenic mice and passaged in vivo, and following long-term continuous dosing. The following experiments were performed to evaluate if mTor inhibitors could be used either alone or in combination to treat resistant tumors or to overcome the development of resistance to Smo antagonists.
Next, a combination of Compound 1 and Compound A was explored in the Ptch+/−Hic+/− medulloblastoma allograft model.

Where [4] appears, read: Tumor type Resistant, single agent, 48 h, 3H thymidine, read-out: IC50, proliferation of medulloblastoma cells.
Setting [5] is: Tumor type Sensitive, single agent, 48 h, 3H thymidine, read-out: IC50, proliferation of medulloblastoma cells.

On to `Cc1c(C(=O)Nc2ccc(N3C[C@@H](C)O[C@@H](C)C3)nc2)cccc1-c1ccc(OC(F)(F)F)cc1` [Compound 1, 2-Methyl-4′-trifluoromethoxy-biphenyl-3-carboxylic acid [6-(cis-2,6-dimethyl-morpholin-4-yl)-pyridin-3-yl]-amide], for which the IC50 was determined as 9080 nM in experiment [1] (setting [4]); 9000 nM in experiment [1] (resistant tumors, read-out: IC50 in resistant tumors); 8 nM in experiment [2] (setting [5]); 8 nM in experiment [2] (sensitive cells, read-out: IC50, inhibition of sensitive cells). Further, in experiment [3], the “effect on tumor growth / tumor volume” value was “initially induced regression but tumors started to regrow”. For the same compound, the “time to endpoint (tumor volume>700 mm3), in words” value in experiment [3] (80 mg/kg qd Compound 1, or combination with 10 mg/kg qd Compound A, FIG. 2) was “significantly prolonged”.

In the case of `CO[C@H]1C[C@@H]2CC[C@@H](C)[C@@](O)(O2)C(=O)C(=O)N2CCCC[C@H]2C(=O)O[C@H]([C@H](C)C[C@@H]2CC[C@@H](OCCO)[C@H](OC)C2)CC(=O)[C@H](C)/C=C(\C)[C@@H](O)[C@@H](OC)C(=O)[C@H](C)C[C@H](C)/C=C/C=C/C=C/1C` [Compound A, (1R,9S,12S,15R,16E,18R,19R,21R,23S,24E,26E,28E,30S,32S,35R)-1,18-dihydroxy-12-{(1R)-2-[(1S,3R,4R)-4-(2-hydroxyethoxy)-3-methoxycyclohexyl]-1-methylethyl}-19,30-dimethoxy-15,17,21,23,29,35-hexamethyl-11,36-dioxa-4-aza-tricyclol-[30.3.1.04.9]hexatriaconta-16,24,26,28-tetraene-2,3,10,14,20-pentaone], the IC50 in experiment [1] (setting [4]) turned out to be 2 nM; in experiment [2] (setting [5]) it was 9 nM. In addition, the “potency of compound A in resistant tumors” value in experiment [1] (in the presence of 5 and 20 uM of compound 1) was “increased”. For the same compound, in experiment [1] (resistant compared with sensitive tumors), the “inhibition of both sensitive and resistant tumors (comparison of IC50s)” value is “inhibited both sensitive and resistant tumors with similar IC50s”. Moreover, the “time to endpoint (tumor volume>700 mm3)” value in experiment [3] (10 mg/kg qd Compound A, FIG. 2) was approximately 20 days. In addition, the “effect on tumor growth / tumor volume” value in experiment [3] is recorded as “only a moderate effect on tumor growth compared to vehicle control”.
